From PubChem BioAssay (NCI)
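Assay format: 96-well plates, 48-hour exposure. Here, GI50 denotes the concentration required for 50% inhibition of growth. TGI: concentration producing complete growth inhibition.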

Legend:
Experiment in all cases: NCI-60 cell line screen, 48 h
[1] = test system: MOLT-4 leukemia
[2] = test system: IGROV1 ovarian
[3] = test system: U251 CNS
[4] = test system: T-47D breast
[5] = test system: UO-31 renal
[6] = test system: SR leukemia
[7] = test system: SW-620 colon
[8] = test system: SF-268 CNS
[9] = test system: NCI-H226 lung
[10] = test system: BT-549 breast

SMILES | TGI [1] [µM] | TGI [2] [µM] | TGI [3] [µM] | TGI [4] [µM] | TGI [5] [µM] | TGI [6] [µM] | TGI [7] [µM] | TGI [8] [µM] | TGI [9] [µM] | TGI [10] [µM] | GI50 [1] [µM] | GI50 [2] [µM] | GI50 [3] [µM] | GI50 [4] [µM] | GI50 [5] [µM] | GI50 [6] [µM] | GI50 [7] [µM] | GI50 [8] [µM] | GI50 [9] [µM] | GI50 [10] [µM]
CN(CC(N)=O)C(=O)N(CCCl)N=O | > 100 | > 100 | > 100 | > 100 | > 100 | > 100 | > 100 | > 100 | > 100 | > 100 |  |  |  |  |  |  |  |  |  | 
CC1(C)CCC[C@]2(C)[C@@H](C=O)C(C=O)=CC[C@@H]12 | 30.5 | 44.4 | 46.9 | 60.3 | 29.9 | 44.5 | > 100 | 55.8 | 56.1 | 74.2 |  |  |  |  |  |  |  |  |  | 
O=[N+]([O-])c1cc(S(=O)(=O)Oc2ccccc2)ccc1Cl | 45.1 | 3.22 | 2.6 | 5.38 | 3.17 | 5.8 | 3.59 | 3.4 | 21.1 | 17 | 2.17 | 1.77 | 1.27 | 2.21 | 1.75 | 0.421 | 1.56 | 1.83 | 7.71 | 5.43
Cc1c(C2=C(c3cn(C)c4ccccc34)C(=O)NC2=O)c2ccccc2n1C | > 25 | > 25 | > 25 | > 25 | > 25 | > 25 | > 25 | > 25 | > 25 | > 25 | 2.18 | > 10.2 | 2.01 | 4.07 | 1.74 | 1.18 | 1.26 | 4.82 | 4.33 | 2.09
Cc1nc2ccccc2c(/C=C/c2ccc(Br)cc2)c1C(=O)/C=C/c1ccccc1 | 5.06 | 4.98 | 2.97 | 3.63 | 2.44 | 6.6 | 4.45 | 6.38 | 3.35 | 4.49 | 0.696 | 1.29 | 1.57 | 1.46 | 1.21 | 1.24 | 1.54 | 2.14 | 1.67 | 1.86
CC(C)(C)CN1CCn2c(nc3c(N)nccc32)S1 | 82 | 30.3 | 47.2 | > 100 | > 100 | 47.4 | 30.1 | 34.9 | > 100 | 66.1 | 5.55 | 11.7 | 13.3 | 13 | 37.1 | 3.24 | 4.16 | 12.5 | 37.2 | 19.1
COc1cc(/C=C/[N+](=O)[O-])cc(Br)c1OC | 53.6 | 4.54 | 3.75 | 8.48 | 3.49 | > 100 | 3.37 | 13.2 | 52.8 | 6.62 | 3.52 | 1.84 | 1.77 | 2.57 | 1.86 | 2.02 | 1.57 | 3.64 | 16.7 | 2.77
C[C@@H]1O[C@@H](OC[C@H]2O[C@@H](OCCc3ccc(O)c(O)c3)[C@H](O)[C@@H](O)[C@@H]2OC(=O)/C=C/c2ccc(O)c(O)c2)[C@H](O)[C@H](O)[C@H]1O | > 100 | > 100 | > 100 | > 100 | > 100 | > 100 | > 100 | > 100 | > 100 | 54.3 | > 100 | > 100 | > 100 | > 100 | > 100 | 93.8 | > 100 | > 100 | > 100 | 24.5
CCN1C(=O)N(CC)C2C1NN=c1s/c(=C3\C(=O)N(CCc4ccccc4)c4ccccc43)c(=O)n12 (centres undefined) | > 100 |  | 15.6 | > 23.9 | > 35.2 | > 36.2 | > 100 | 27.4 | 3.78 | 4.97 | 1.49 | 0.672 | 0.413 | 1.19 | 1.03 | 0.461 | 0.492 | 1.95 | 0.811 | 1.49
